Data from paper PMC4479019, “Atomistic design of microbial opsin-based blue-shifted optogenetics tools” (Nature Communications, 2015).

Columns and labels:
Test in all cases: absorption spectrum of purified protein
Type in all cases: binding
Details in all cases: covalent (protonated Schiff base); 1 M NaCl, 0.05% DDM, pH 7.0
GR = target: T1, GR (Gloeobacter violaceus, UniProt Q7NP59)
T1 construct: gene gll0198
T1 sequence (Q7NP59 1-298): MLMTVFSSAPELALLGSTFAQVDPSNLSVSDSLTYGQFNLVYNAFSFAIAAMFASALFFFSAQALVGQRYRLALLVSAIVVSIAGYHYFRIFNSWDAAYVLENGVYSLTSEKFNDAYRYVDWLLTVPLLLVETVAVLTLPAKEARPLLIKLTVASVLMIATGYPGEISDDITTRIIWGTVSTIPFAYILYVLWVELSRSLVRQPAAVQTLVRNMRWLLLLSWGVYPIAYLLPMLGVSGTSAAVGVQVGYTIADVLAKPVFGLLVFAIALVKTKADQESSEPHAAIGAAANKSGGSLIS

AR3 (archaerhodopsin-3) = target: T2, AR3 (archaerhodopsin-3) (Halorubrum sodomense, UniProt P96787, M128A/G132A/S151G/A225T)
T2 construct: gene aop3
T2 sequence (P96787 7-258 M128A/G132A/S151G/A225T): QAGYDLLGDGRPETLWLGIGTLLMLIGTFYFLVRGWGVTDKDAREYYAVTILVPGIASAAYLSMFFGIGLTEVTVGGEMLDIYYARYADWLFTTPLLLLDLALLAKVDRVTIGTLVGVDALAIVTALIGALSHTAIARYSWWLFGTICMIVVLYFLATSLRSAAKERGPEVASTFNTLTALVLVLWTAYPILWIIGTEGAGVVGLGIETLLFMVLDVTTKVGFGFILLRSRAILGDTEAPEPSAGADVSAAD

HwBR = target: T3, HwBR (Haloquadratum walsbyi, UniProt Q18DH8)
T3 construct: gene bop1
T3 sequence (Q18DH8 7-254): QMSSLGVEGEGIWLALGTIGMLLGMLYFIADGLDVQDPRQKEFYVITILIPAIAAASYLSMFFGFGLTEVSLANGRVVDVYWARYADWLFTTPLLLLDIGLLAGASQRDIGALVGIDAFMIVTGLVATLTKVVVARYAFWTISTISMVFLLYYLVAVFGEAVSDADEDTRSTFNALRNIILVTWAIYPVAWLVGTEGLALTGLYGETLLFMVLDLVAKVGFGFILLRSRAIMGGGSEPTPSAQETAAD

CC1=C(/C=C/C(C)=C/C=C/C(C)=C/C=O)C(C)(C)CCC1 [all-trans retinal]
absorption spectrum of purified protein (GR): Absorption spectra of wild-type and colour variants of HwBR (a) and GR (b) | absorption spectrum of purified protein (AR3 (archaerhodopsin-3)): The M128A/G132A/S151G/A225T and M128A/S151A/A225T mutants slightly reduced the shifts | absorption spectrum of purified protein (HwBR): Absorption spectra of wild-type and colour variants of HwBR (a) and GR (b)
